Results reported in patent publication US20240050524A1, “DELIVERY OF ABETA VARIANTS FOR AGGREGATION INHIBITION” (Baylor College of Medicine, priority 2020, published 2024).
Entries after “also recorded” stand apart in the source; their conditions may differ.

System: γ-secretase
Assay: Dependence of Aβ release from transfected N2a cells on γ-secretase activity (IP/immunoblot of conditioned media)
Format: cell-based, murine
Details: 'KK' minimal construct; 0.1 or 1 nM
Procedure: Collection of Aβ peptides from N2a conditioned media. N2a cells were grown in 6 well plates using Dulbecco's modified Eagle's medium (DMEM) (#12-604F, VWR) supplemented with […] penicillin/streptomycin and 10% fetal bovine serum until approximately 90% confluent. […] Twenty-four hours later, cells were washed with 1×Dulbecco's PBS, and a serum-reduced medium consisting of DMEM and 0.2% fetal bovine serum was added before the cells were returned to 5% CO2 at 37° C. Conditioned media was harvested 24 hr later and centrifuged at 10,000 rpm for 5 min at 4° C. (2 ml/well×3 wells per IP reaction). To test the dependence of Aβ release on γ-secretase activity, cells were transfected as above, with the subsequent media replacement including 0.1 or 1 nM of LY411575 (#SML0506, Sigma). Supernatants were collected and supplemented with protease inhibitors (#5892970001, Sigma) and 0.01% NaN3 (#S2002, Sigma) to prevent proteolytic degradation.
Aβ IP from conditioned media for immunoblot. Protein G Dynabeads (50 μl, #10003D, Fisher) were loaded with mouse anti-Aβ antibody 6E10 (1 ug, #SIG-39320, BioLegend, San Diego, CA) for 1 hr at RT. […] Antibody binding was detected using […] secondary antibody conjugated with IRDye, diluted 1:20,000 in block (#26-32210, LI-COR, Lincoln, NE). Blots were imaged with an Odyssey Fc Imager and analyzed with Image Studio software (LI-COR).

For `C[C@H](NC(=O)[C@@H](O)c1cc(F)cc(F)c1)C(=O)N[C@@H]1C(=O)N(C)c2ccccc2-c2ccccc21` [LY411575], the “block of Aβ secretion into the media” value was “blocked release of variant Aβ into the media in a concentration-dependent manner; also recorded: blocked in a dose-dependent manner”.
